Laboratory results taken from patent US11926613B2, “Kinase inhibitors for the treatment of central and peripheral nervous system disorders” (UNIVERSITY OF MIAMI, priority 2017, dated 2024).

What was measured:
[1] = system: neurons from hippocampi of E18 rat embryos; experiment: Neurite growth length (% NTL) in cultured E18 rat hippocampal neurons, 9-point dose response, 48 hours; format: cell-based; settings: Rattus norvegicus, Neuron, 48 h; for activity at 0.078 µM: 78 nM; for activity at 0.156 µM: 156 nM; for activity at 0.312 µM: 312 nM; for activity at 0.625 µM: 625 nM
Outline: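 % NTL comes from automated neurite tracing of βIII-tubulin-stained cells, with 200–300 or more neurons per condition. Compounds were given in a 9-point dilution series (20 μM to 0.078125 μM) for 48 h. Cells were trypsin-dissociated E18 rat hippocampal neurons plated at 1500/well on poly-D-lysine.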

Primary Neurons = experiment: HCS neurite outgrowth assay (High Content Screening with Primary Neurons); format: cell-based; settings: Primary neuron

Compound	activity at 0.078 µM [1] [%]	activity at 0.156 µM [1] [%]	activity at 0.312 µM [1] [%]	activity at 0.625 µM [1] [%]	activity at 1.25 µM [1] [%]	activity at 2.5 µM [1] [%]	activity at 5 µM [1] [%]	activity at 10 µM [1] [%]	activity at 20 µM [1] [%]	EC50 (Primary Neurons) [µM]
COc1ccc(O)c(C(=O)c2ccc(C(=O)N[C@@H]3CNC[C@H]3NC(=O)c3ccnc(N)n3)cc2)c1F [Example A36, 2-amino-N-[(3R,4R)-4-[4-(2-fluoro-6-hydroxy-3-methoxybenzoyl)benzamido]pyrrolidin-3-yl]pyrimidine-4-carboxamide]	116	126	131	149	239	358	516	480	470	1.83
COc1ccc(O)c(C(=O)c2ccc(C(=O)N[C@@H]3CNC[C@H]3NC(=O)c3ccc(O)cc3)cc2)c1F [Example A37, N-[(3R,4R)-4-[4-(2-fluoro-6-hydroxy-3-methoxybenzoyl)benzamido]pyrrolidin-3-yl]-4-hydroxybenzamide]	100	109	113	107	113	124	132	155	212	> 20
COc1ccc(O)c(C(=O)c2ccc(C(=O)N[C@@H]3CNC[C@H]3NC(=O)c3cccnc3)cc2)c1F [Example A38, N-[(3R,4R)-4-[4-(2-fluoro-6-hydroxy-3-methoxybenzoyl)benzamido]pyrrolidin-3-yl]pyridine-3-carboxamide]	108	102	103	96.6	100	100	106	100	87.7	3.15
COc1ccc(O)c(C(=O)c2ccc(C(=O)N[C@@H]3CNC[C@H]3NC(=O)c3ccc(O)nc3)cc2)c1F [Example A39, N-[(3R,4R)-4-[4-(2-fluoro-6-hydroxy-3-methoxybenzoyl)benzamido]pyrrolidin-3-yl]-6-hydroxypyridine-3-carboxamide]	96.3	93	85.5	80.5	83	87.3	98	98.9	101	3.76
COc1ccc(O)c(C(=O)c2ccc(C(=O)N[C@@H]3CNC[C@H]3NC(=O)c3ccnc(O)c3)cc2)c1F [Example A40, N-[(3R,4R)-4-[4-(2-fluoro-6-hydroxy-3-methoxybenzoyl)benzamido]pyrrolidin-3-yl]-2-hydroxypyridine-4-carboxamide]	86.3	91.2	86.2	86.2	94.1	108	101	106	121	9.62
COc1ccc(O)c(C(=O)c2ccc(C(=O)N[C@@H]3CNC[C@H]3NC(=O)c3ccncn3)cc2)c1F [Example A41, N-[(3R,4R)-4-[4-(2-fluoro-6-hydroxy-3-methoxybenzoyl)benzamido]pyrrolidin-3-yl]pyrimidine-4-carboxamide]	91.3	88.5	86.2	87	95.9	102	124	152	190	11
COc1ccc(O)c(C(=O)c2ccc(C(=O)N[C@@H]3CNC[C@H]3NC(=O)c3ccc4[nH]ncc4c3)cc2)c1F [Example A42, N-[(3R,4R)-4-[4-(2-fluoro-6-hydroxy-3-methoxybenzoyl)benzamido]pyrrolidin-3-yl]-1H-indazole-5-carboxamide]	115	110	126	118	169	255	403	431	369	2.45
COc1ccc(O)c(C(=O)c2ccc(C(=O)N[C@@H]3CNC[C@H]3NC(=O)c3cn[nH]c3)cc2)c1F [Example A43, N-[(3R,4R)-4-[4-(2-fluoro-6-hydroxy-3-methoxybenzoyl)benzamido]pyrrolidin-3-yl]-1H-pyrazole-4-carboxamide]	118	118	115	114	124	136	144	155	173	3.11
COc1ccc(O)c(C(O)c2ccc(C(=O)N[C@@H]3CNC[C@H]3NC(=O)c3ccnc(N)n3)cc2)c1F (stereo partly drawn) [Example A44, 2-amino-N-[(3R,4R)-4-{4-[(2-fluoro-6-hydroxy-3-methoxyphenyl)(hydroxy)methyl]benzamido}pyrrolidin-3-yl]pyrimidine-4-carboxamide]	94	87.1	78.8	76.4	99.4	96.2	104	103	105	2.05
COc1ccc(O)c(Cc2ccc(C(=O)N[C@@H]3CNC[C@H]3NC(=O)c3ccnc(N)n3)cc2)c1F [Example A45, 2-amino-N-[(3R,4R)-4-{4-[(2-fluoro-6-hydroxy-3-methoxyphenyl)methyl]benzamido}pyrrolidin-3-yl]pyrimidine-4-carboxamide]	96.5	90.2	83.7	87	84.8	93.3	89.1	97.2	111	> 20
COc1ccc(O)c(C(=O)c2ccc(C(=O)N[C@@H]3CNC[C@H]3NC(=O)Cc3cccnc3)cc2)c1F [Example A46, 4-(2-fluoro-6-hydroxy-3-methoxybenzoyl)-N-[(3R,4R)-4-[2-(pyridin-3-yl)acetamido]pyrrolidin-3-yl]benzamide]	95.6	95	90.8	77.5	93.1	86.8	88.1	100	90.2	1.65
COc1ccc(O)c(C(=O)c2ccc(C(=O)N[C@@H]3CNC[C@H]3NC(=O)Cc3cn[nH]c3)cc2)c1F [Example A47, 4-(2-fluoro-6-hydroxy-3-methoxybenzoyl)-N-[(3R,4R)-4-[2-(1H-pyrazol-4-yl)acetamido]pyrrolidin-3-yl]benzamide]	100	99.3	99.7	96.8	104	112	122	128	162	7.43
COc1ccc(O)c(C(=O)c2ccc(C(=O)N[C@@H]3CNC[C@H]3NC(=O)c3ccnc4[nH]cnc34)cc2)c1F [Example A48, N-[(3R,4R)-4-[4-(2-fluoro-6-hydroxy-3-methoxybenzoyl)benzamido]pyrrolidin-3-yl]-3H-imidazo[4,5-b]pyridine-7-carboxamide]	109	117	116	120	144	219	332	461	421	6.08
O=C(N[C@@H]1CNC[C@H]1NC(=O)c1ccc2[nH]ncc2c1)c1ccc(C(=O)c2c(O)cccc2F)cc1 [Example A49, N-[(3R,4R)-4-[4-(2-fluoro-6-hydroxybenzoyl)benzamido]pyrrolidin-3-yl]-1H-indazole-5-carboxamide]	107	99.5	101	112	139	200	298	322	207	2.46
Nc1nccc(C(=O)N[C@@H]2CNC[C@H]2NC(=O)c2ccc(C(=O)c3c(O)cccc3F)cc2)n1 [Example A50, 2-amino-N-[(3R,4R)-4-[4-(2-fluoro-6-hydroxybenzoyl)benzamido]pyrrolidin-3-yl]pyrimidine-4-carboxamide]	113	113	118	136	194	285	431	561	457	3.6
O=C(N[C@@H]1CNC[C@H]1NC(=O)c1ccc(C(=O)c2c(O)cccc2F)cc1)c1ccncc1 [Example A51, N-[(3R,4R)-4-[4-(2-fluoro-6-hydroxybenzoyl)benzamido]pyrrolidin-3-yl]pyridine-4-carboxamide]	129	129	135	158	191	260	362	506	421	4.9
